Source: ChEMBL document CHEMBL1133986, “Design and synthesis of new potent human cytomegalovirus (HCMV) inhibitors based on internally hydrogen-bonded 1,6-naphthyridines” (Bioorg Med Chem Lett, 2001)
Converted amounts (≈) assume the structure as drawn.

Legend:
Hs68 [1] = test: Inhibitory activity against Human cytomegalovirus (HCMV) in Hs 68 cell line determined by plaque reduction assay; assay type: functional, cell-based
Hs68 [2] = test: Cytotoxicity against the Hs 68 cell line; assay type: functional; settings: Homo sapiens

| SMILES | IC50 (Hs68 [1]) [µg/mL] | CC50 (Hs68 [2]) [µg/mL] |
| --- | --- | --- |
| CCOc1ccccc1C/N=C(\S)c1ccc2cnccc2n1 | 0.1 (≈ 0.309 µM) | 4.6 (≈ 14.2 µM) |
| CCOc1ccccc1NC(=O)Nc1ccc2cncc(Br)c2n1 | 0.46 (≈ 1.19 µM) | 9.3 (≈ 24 µM) |
| CCOc1ccccc1NC(=O)Nc1nc2ccncc2cc1C#N | > 25 | < 25 |
| CC(C)Oc1ccccc1C/N=C(\S)c1ccc2cnccc2n1 | 0.16 (≈ 0.474 µM) | 11.1 (≈ 32.9 µM) |
| CCOc1ccccc1NC(=O)Nc1nc2ccncc2cc1C | > 25 | > 100 |

The next lines start with results.

| IC50 (Hs68 [1]) [µg/mL] | SMILES | CC50 (Hs68 [2]) [µg/mL] |
| --- | --- | --- |
| 0.01 (≈ 0.0297 µM) | CC(C)Oc1ccccc1CNC(=O)Nc1ccc2cnccc2n1 | 18.9 (≈ 56.2 µM) |
| 0.93 (≈ 3.01 µM) | COc1ccccc1C/N=C(\S)c1ccc2cnccc2n1 | 8.1 (≈ 26.2 µM) |
| > 25 | O=C(Nc1ccccc1)Nc1ccc2cnccc2n1 | > 100 |
| 1 (≈ 3.24 µM) | COc1ccccc1CNC(=O)Nc1ccc2cnccc2n1 | 13 (≈ 42.2 µM) |
| 0.03 (≈ 0.0931 µM) | CC(C)Oc1ccccc1NC(=O)Nc1ccc2cnccc2n1 | 30.2 (≈ 93.7 µM) |
| 1.2 (≈ 4.08 µM) | COc1ccccc1NC(=O)Nc1ccc2cnccc2n1 | 33.9 (≈ 115 µM) |
| 0.29 (≈ 1.04 µM) | O=C(NCc1ccccc1)Nc1ccc2cnccc2n1 | 0.37 (≈ 1.33 µM) |
| 0.14 (≈ 0.454 µM) | CCOc1ccccc1NC(=O)Nc1ccc2cnccc2n1 | 1.7 (≈ 5.51 µM) |
